Test results as given in ChEMBL document CHEMBL1201862, “PubChem BioAssay data set” (2004).
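Where inhibition never reached the appropriate level, the endpoint shown equals the highest concentration tested. Otherwise, values were interpolated linearly from a five-concentration, 48-hour dose response in 96-well plates. At the GI50, growth is halved.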 Activity calls are given as the source filed them. Cut-off read from the data, not from the text of the source: active = GI50 up to about 1.1 µM and inactive = higher.

Key:
Assay in all cases: DTP human tumour cell line panel, 48 h
OVCAR-4 = system: OVCAR-4
786-0 = system: 786-0
NCI-H460 = system: NCI-H460
UACC-62 = system: UACC-62
COLO 205 = system: COLO 205
BT-549 = system: BT-549
MCF7 = system: MCF7
TK-10 = system: TK-10
SK-MEL-5 = system: SK-MEL-5
SF-295 = system: SF-295
Hs-578T = system: Hs-578T
HL-60 = system: HL-60
SK-MEL-28 = system: SK-MEL-28
NCI-H23 = system: NCI-H23
CAKI-1 = system: CAKI-1
IGROV-1 = system: IGROV-1
HOP-92 = system: HOP-92
SNB-75 = system: SNB-75
OVCAR-8 = system: OVCAR-8
SW-620 = system: SW-620

Measured: GI50

CCN(CC)c1ccc2cc(-c3nnc(-c4ccccc4)o3)c(=O)oc2c1
inactive: OVCAR-4 39.4 µM | 786-0 17 µM | NCI-H460 4.93 µM | UACC-62 36.6 µM | COLO 205 20.3 µM | BT-549 > 57.1 µM | MCF7 22.5 µM | TK-10 25.4 µM | SK-MEL-5 29.5 µM | SF-295 17.3 µM | Hs-578T > 84.9 µM | HL-60 16.6 µM | SK-MEL-28 > 85.3 µM | NCI-H23 56.9 µM | CAKI-1 > 45.7 µM | IGROV-1 28.9 µM | HOP-92 > 100 µM | SNB-75 24.3 µM | OVCAR-8 28.1 µM | SW-620 30.5 µM

COc1ccccc1C[C@@H]1OC2(C=CC(=O)C=C2)O[C@H]1Cc1ccccc1OC
inactive: OVCAR-4 8.38 µM | 786-0 1.39 µM | NCI-H460 23 µM | UACC-62 10.3 µM | COLO 205 8.11 µM | BT-549 2.64 µM | MCF7 3.96 µM | TK-10 9.06 µM | SK-MEL-5 8.99 µM | SF-295 11 µM | Hs-578T 10 µM | HL-60 7.43 µM | SK-MEL-28 8.81 µM | NCI-H23 8.75 µM | CAKI-1 10.3 µM | IGROV-1 6.75 µM | HOP-92 9.55 µM | SNB-75 9.04 µM | OVCAR-8 1.27 µM | SW-620 1.79 µM

c1ccc(-c2c(-c3[nH]c4ccccc4c3-c3ccccc3)[nH]c3ccccc23)cc1
inactive: OVCAR-4 2.17 µM | 786-0 2.07 µM | NCI-H460 2.95 µM | UACC-62 9.98 µM | COLO 205 1.91 µM | BT-549 4.56 µM | MCF7 3.33 µM | TK-10 10.6 µM | SK-MEL-5 4.16 µM | SF-295 4.18 µM | Hs-578T 9.38 µM | HL-60 3.06 µM | SK-MEL-28 11.4 µM | NCI-H23 2.63 µM | CAKI-1 3.33 µM | IGROV-1 4.75 µM | HOP-92 3.21 µM | SNB-75 4.15 µM | OVCAR-8 4.29 µM | SW-620 3.34 µM

O=C1C(Nc2ccccc2)=CC2=NCCc3n[nH]c1c32
inactive: OVCAR-4 27.2 µM | 786-0 38.5 µM | NCI-H460 35.9 µM | UACC-62 21.5 µM | COLO 205 33.1 µM | BT-549 40.8 µM | MCF7 26.7 µM | TK-10 > 100 µM | SK-MEL-5 18.5 µM | SF-295 38.6 µM | Hs-578T 42.2 µM | HL-60 21.1 µM | SK-MEL-28 68.1 µM | NCI-H23 33.9 µM | CAKI-1 72.6 µM | IGROV-1 37.8 µM | HOP-92 45.8 µM | SNB-75 > 100 µM | OVCAR-8 21 µM | SW-620 34.4 µM

O=C(O)c1ccccc1CC1Cc2ccc3c(c2C1=O)CCC3 (stereo not given)
inactive: OVCAR-4 > 100 µM | 786-0 > 100 µM | NCI-H460 > 100 µM | UACC-62 > 100 µM | COLO 205 > 100 µM | BT-549 > 100 µM | MCF7 > 100 µM | TK-10 > 100 µM | SK-MEL-5 > 100 µM | SF-295 > 100 µM | Hs-578T > 100 µM | HL-60 > 100 µM | SK-MEL-28 > 100 µM | NCI-H23 > 100 µM | CAKI-1 > 100 µM | IGROV-1 > 100 µM | HOP-92 > 100 µM | SNB-75 87.1 µM | OVCAR-8 > 100 µM | SW-620 > 100 µM
